{"source": "paper PMC9219824", "about": "“Antiplasmodial Cyclodecapeptides from Tyrothricin Share a Target with Chloroquine” (Antibiotics, 2022)", "key": {"[1]": {"system": "CQR P. falciparum Dd2", "assay": "microbe, parasite or virus in culture", "type": "cell-based, Plasmodium falciparum", "details": "for IC50: read-out: IC50, CQR P. falciparum Dd2; for Resistance Index IC50Dd2/IC503D7: first value of cell; for Resistance Index IC50Dd2/IC50D10: second value of cell", "method": "(§1) The antimalarial assays were carried out according to the method of Nkhoma et al.. […] On the day of the assay, the parasitemia was determined following observation by light microscopy after Giemsa staining of a thin blood smear from the culture. The cultures at young trophozoite stage were diluted to 2% parasitemia and 2% hematocrit by addition of fresh RPMI medium and uninfected erythrocytes. This culture suspension was distributed in 96-well culture plates at 90 µL/well. […] Peptide solvent and medium (10 µL/well) was used as sterility control and in growth control and 10 μL 1.0 mM GS was used as positive control. Assays were carried out in at least three biological repeats each consisting of three technical repeats to ascertain reproducibility.\n(§2) The culture suspension was frozen away at −20 °C until determination of the residual lactate dehydrogenase activity of the parasites by the Malstat assay, as adapted from Gomez et al..\n(§3) For the Malstat assay, the plates were transferred to −80 °C for 1 h following overnight storage at −20 °C to ensure that all the suspensions in each well of the 96-well plate were frozen. The plates were then thawed at room temperature. The Malstat reagent consisted of 200 μL Triton X-100, 2 g L-lactic acid (substrate), 0.66 g Tris-HCl buffer and 0.011 g of 3-acetylpyridine adenine dinucleotide (APAD) (coenzyme for parasite lactate dehydrogenase) in 100 mL analytical quality water set to a pH of 9.0 [93]. […] A 15 µL aliquot of the thawed and properly mixed suspension from the assay plates was added to 100 µL of the Malstat reagent, followed by addition of 25 µL of the NBT/PES solution. The reaction mixtures were then incubated at room temperature in the dark for 30 min followed by spectrophotometric measurement of the absorbance of the reduced APAD at 620 nm using a Model 680 Microplate reader from BioRad.\n(§4) The data obtained from spectrophotometric measurement of the plates following the lactate dehydrogenase (Malstat) assay were converted to percentage growth inhibition using the data analysis method described by Rautenbach et al.. The background was obtained from control wells in which the parasites were killed with 100 µM GS while total growth was from the wells that were not submitted to peptides. […] The percentage COS-1 cell death (CellTiter Blue™ assay) was similarly calculated from absorbance values."}, "[2]": {"system": "CQS P. falciparum 3D7", "assay": "microbe, parasite or virus in culture", "type": "cell-based, Plasmodium falciparum", "method": "as §1, §2, §3, §4"}, "[3]": {"system": "CQI P. falciparum D10", "assay": "microbe, parasite or virus in culture", "type": "cell-based, Plasmodium falciparum", "details": "for IC50: 48 h, Malstat, ± SEM", "method": "The antimalarial assays were carried out according to the method of Nkhoma et al.. Once the cultures reached a parasitemia of 5–15%, they were synchronized four days prior to the day of the assay as described above which allowed the cultures to recover from the stress caused by the D-sorbitol. On the day of the assay, the parasitemia was determined following observation by light microscopy after Giemsa staining of a thin blood smear from the culture. The cultures at young trophozoite stage were diluted to 2% parasitemia and 2% hematocrit by addition of fresh RPMI medium and uninfected erythrocytes. This culture suspension was distributed in 96-well culture plates at 90 µL/well. The peptides and CQ diluted in culture medium lacking albumax II were added to the cultures in triplicate at 10 µL/well to give a total volume of 100 µL/well. Peptide solvent and medium (10 µL/well) was used as sterility control and in growth control and 10 μL 1.0 mM GS was used as positive control. Assays were carried out in at least three biological repeats each consisting of three technical repeats to ascertain reproducibility.\nFor the activity determination against parasites, plates were incubated at 37 °C for 48 h under an atmosphere of 3% CO2, 4% O2 and 93% N2. The culture suspension was frozen away at −20 °C until determination of the residual lactate dehydrogenase activity of the parasites by the Malstat assay, as adapted from Gomez et al..\nFor the Malstat assay, the plates were transferred to −80 °C for 1 h following overnight storage at −20 °C to ensure that all the suspensions in each well of the 96-well plate were frozen. The plates were then thawed at room temperature. The Malstat reagent consisted of 200 μL Triton X-100, 2 g L-lactic acid (substrate), 0.66 g Tris-HCl buffer and 0.011 g of 3-acetylpyridine adenine dinucleotide (APAD) (coenzyme for parasite lactate dehydrogenase) in 100 mL analytical quality water set to a pH of 9.0 [93]. The lactate dehydrogenase reaction was initiated by addition of a second solution, NBT/PES solution composed of 1.96 mM nitro blue tetrazolium (NBT) and 0.24 mM phenazine ethosulfate (PES) which was always protected from light. A 15 µL aliquot of the thawed and properly mixed suspension from the assay plates was added to 100 µL of the Malstat reagent, followed by addition of 25 µL of the NBT/PES solution. The reaction mixtures were then incubated at room temperature in the dark for 30 min followed by spectrophotometric measurement of the absorbance of the reduced APAD at 620 nm using a Model 680 Microplate reader from BioRad.\n(§5) The data obtained from spectrophotometric measurement of the plates following the lactate dehydrogenase (Malstat) assay were converted to percentage growth inhibition using the data analysis method described by Rautenbach et al.. The background was obtained from control wells in which the parasites were killed with 100 µM GS while total growth was from the wells that were not submitted to peptides. The background for the hemolysis evaluation was from wells in which the uninfected erythrocytes were lysed using 100 µM GS while growth control was from the wells with uninfected erythrocytes that received no peptides. The percentage COS-1 cell death (CellTiter Blue™ assay) was similarly calculated from absorbance values. All the dose–response assay data were evaluated using GraphPad Prism 4.03 (GraphPad Software, San Diego, CA, USA) followed by non-linear regression and sigmoidal curves were fitted (having variable slope and a constant difference of 100 between the top and bottom plateau). Following calculation of the 50% P. falciparum inhibitory concentration (IC50), 50% hemolytic concentration (HC50) and 50% lethal concentration (LC50) for COS-1 cells."}, "[4]": {"assay": "Toxicity to COS-1 cells, CellTiter Blue viability", "type": "cell-based", "details": "24 h, resazurin (CellTiter Blue), read-out: Toxicity LC50, COS Cells", "method": "COS-1 cells were cultured in DMEM containing 0.9 g/L glucose, 0.12% NaHCO3, 10% fetal calf serum and 1% penicillin–streptomycin at 37 °C and under an atmosphere of 5% CO2 [95]. Twenty hours before the assay, the cells were transferred to 96-well plates at a density of 1.5 × 10^4 cells/well. The peptides from the dilution series were added to each well and incubated for 24 h. The cell viability was measured by adding 20 μL/well resazurin reagent (CellTiter Blue™), followed by four hours incubation at room temperature in the dark and measurement of the absorbance at 560 nm and 600 nm in the BioRad microplate reader.\nas §5"}, "[5]": {"system": "human erythrocytes", "assay": "Hemolytic activity", "type": "cell-based", "details": "2% hematocrit, 1 h at 37 °C, ± SEM", "method": "To determine the hemolytic activity of the peptides, the duplicate 96-well plates with samples added to 90 μL 2% hematocrit per well were incubated for one hour at 37 °C and centrifuged using a swing-out rotor at 200× g for 3 min. The supernatant was diluted 1:8 in analytical quality water in separate 96-well plates and after mixing, the absorbance of the suspension was determined at 405 nm.\nas §5"}}, "note": "Where two headings read alike, the source gives them in different places. Square brackets hold non-standard residues; d marks the D form. Peptide text beside a SMILES is read from it. Orn = NCCC[C@H](N)C(=O)O", "data": [{"smiles": "CCN(CC)CCCC(C)Nc1ccnc2cc(Cl)ccc12", "note": "(stereo not shown) [CQ, chloroquine]", "values": [{"measurement": "IC50", "setting": "[1]; Plasmodium falciparum, DD2, 48 h", "result": "277 ± 18", "unit": "nM"}, {"measurement": "Resistance Index IC50Dd2/IC503D7", "setting": "[1]", "result": 16}, {"measurement": "Resistance Index IC50Dd2/IC50D10", "setting": "[1]", "result": 7}, {"measurement": "IC50", "setting": "[2]; Plasmodium falciparum, 3D7, 48 h, read-out: IC50, CQS P. falciparum 3D7", "result": "17 ± 5", "unit": "nM"}, {"measurement": "IC50", "setting": "[3]; Plasmodium falciparum, D10", "result": "40 ± 3", "unit": "nM"}]}, {"smiles": "CC(C)C[C@@H]1NC(=O)[C@H](CCCN)NC(=O)[C@H](C(C)C)NC(=O)[C@@H]2CCCN2C(=O)[C@@H](Cc2ccccc2)NC(=O)[C@H](CC(C)C)NC(=O)[C@H](CCCN)NC(=O)[C@H](C(C)C)NC(=O)[C@@H]2CCCN2C(=O)[C@@H](Cc2ccccc2)NC1=O", "note": "[GS, gramicidin S, reference compound] (cyclo(V[Orn]L[dF]PV[Orn]L[dF]P))", "values": [{"measurement": "IC50", "setting": "[1]; 48 h, Malstat, ± SEM", "result": "1860 ± 160", "unit": "nM"}, {"measurement": "Resistance Index IC50Dd2/IC503D7", "setting": "[1]", "result": "1.3; 1.3"}, {"measurement": "Resistance Index IC50Dd2/IC50D10", "setting": "[1]", "result": "1.3; 1.3"}, {"measurement": "IC50", "setting": "[2]; CQS 3D7, 48 h", "result": "1450 ± 151", "unit": "nM"}, {"measurement": "IC50", "setting": "[3]", "result": "1400 ± 86", "unit": "nM"}, {"measurement": "Selectivity Index IC50D10/IC50 (COS cells)", "setting": "[3]; second value of cell", "result": 6}, {"measurement": "CC50", "setting": "[4]", "result": 9000, "unit": "nM"}, {"measurement": "HC50, Erythrocytes", "setting": "[5]", "result": "6.2 ± 0.4 (9) μM"}]}]}
